In brackets after ≈: the same amount, converted by molar mass.
Columns and labels:
Format in all cases: functional
Staphylococcus aureus [1] = test: Antimicrobial activity against Staphylococcus aureus MTCC 96 assessed as diameter of growth inhibition zone at 25 ug/ml after 18-24 hr by agar cup diffusion method; conditions: read-out: DIZ
Penicillium [2] = test: Antimicrobial activity against Penicillium wild strain by agar cup diffusion method
Aspergillus clavatus [3] = test: Antimicrobial activity against Aspergillus clavatus MTCC 1323 assessed as diameter of growth inhibition zone at 50 ug/ml after 48-96 hr by agar cup diffusion method; conditions: read-out: DIZ
Klebsiella pneumoniae [4] = test: Antimicrobial activity against Klebsiella pneumoniae MTCC 109 assessed as diameter of growth inhibition zone at 250 ug/ml after 18-24 hr by agar cup diffusion method; conditions: read-out: DIZ
Candida albicans [5] = test: Antimicrobial activity against Candida albicans MTCC 227 assessed as diameter of growth inhibition zone at 100 ug/ml after 48-96 hr by agar cup diffusion method; conditions: read-out: DIZ
Streptococcus pyogenes [6] = test: Antimicrobial activity against Streptococcus pyogenes MTCC 442 assessed as diameter of growth inhibition zone at 25 ug/ml after 18-24 hr by agar cup diffusion method; conditions: read-out: DIZ
Klebsiella pneumoniae [7] = test: Antimicrobial activity against Klebsiella pneumoniae MTCC 109 assessed as diameter of growth inhibition zone at 25 ug/ml after 18-24 hr by agar cup diffusion method; conditions: read-out: DIZ
Pseudomonas aeruginosa [8] = test: Antimicrobial activity against Pseudomonas aeruginosa MTCC 1688 assessed as diameter of growth inhibition zone at 100 ug/ml after 18-24 hr by agar cup diffusion method; conditions: read-out: DIZ
Candida albicans [9] = test: Antimicrobial activity against Candida albicans MTCC 227 by agar cup diffusion method
Staphylococcus aureus [10] = test: Antimicrobial activity against Staphylococcus aureus MTCC 96 assessed as diameter of growth inhibition zone at 50 ug/ml after 18-24 hr by agar cup diffusion method; conditions: read-out: DIZ
Escherichia coli [11] = test: Antimicrobial activity against Escherichia coli MTCC 443 assessed as diameter of growth inhibition zone at 50 ug/ml after 18-24 hr by agar cup diffusion method; conditions: read-out: DIZ
Klebsiella pneumoniae [12] = test: Antimicrobial activity against Klebsiella pneumoniae MTCC 109 assessed as diameter of growth inhibition zone at 100 ug/ml after 18-24 hr by agar cup diffusion method; conditions: read-out: DIZ
Klebsiella pneumoniae [13] = test: Antimicrobial activity against Klebsiella pneumoniae MTCC 109 by agar cup diffusion method
Candida albicans [14] = test: Antimicrobial activity against Candida albicans MTCC 227 assessed as diameter of growth inhibition zone at 25 ug/ml after 48-96 hr by agar cup diffusion method; conditions: read-out: DIZ
Trichophyton rubrum [15] = test: Antimicrobial activity against Trichophyton rubrum MTCC 296 assessed as diameter of growth inhibition zone at 250 ug/ml after 48-96 hr by agar cup diffusion method; conditions: read-out: DIZ
Aspergillus clavatus [16] = test: Antimicrobial activity against Aspergillus clavatus MTCC 1323 assessed as diameter of growth inhibition zone at 100 ug/ml after 48-96 hr by agar cup diffusion method; conditions: read-out: DIZ
Pseudomonas aeruginosa [17] = test: Antimicrobial activity against Pseudomonas aeruginosa MTCC 1688 assessed as diameter of growth inhibition zone at 250 ug/ml after 18-24 hr by agar cup diffusion method; conditions: read-out: DIZ
Staphylococcus aureus [18] = test: Antimicrobial activity against Staphylococcus aureus MTCC 96 assessed as diameter of growth inhibition zone at 250 ug/ml after 18-24 hr by agar cup diffusion method; conditions: read-out: DIZ
Candida albicans [19] = test: Antimicrobial activity against Candida albicans MTCC 227 assessed as diameter of growth inhibition zone at 50 ug/ml after 48-96 hr by agar cup diffusion method; conditions: read-out: DIZ
Escherichia coli [20] = test: Antimicrobial activity against Escherichia coli MTCC 443 assessed as diameter of growth inhibition zone at 250 ug/ml after 18-24 hr by agar cup diffusion method; conditions: read-out: DIZ
Streptococcus pyogenes [21] = test: Antimicrobial activity against Streptococcus pyogenes MTCC 442 assessed as diameter of growth inhibition zone at 50 ug/ml after 18-24 hr by agar cup diffusion method; conditions: read-out: DIZ
Streptococcus pyogenes [22] = test: Antimicrobial activity against Streptococcus pyogenes MTCC 442 by agar cup diffusion method
Streptococcus pyogenes [23] = test: Antimicrobial activity against Streptococcus pyogenes MTCC 442 assessed as diameter of growth inhibition zone at 250 ug/ml after 18-24 hr by agar cup diffusion method; conditions: read-out: DIZ
Escherichia coli [24] = test: Antimicrobial activity against Escherichia coli MTCC 443 by agar cup diffusion method
Staphylococcus aureus [25] = test: Antimicrobial activity against Staphylococcus aureus MTCC 96 by agar cup diffusion method
Penicillium [26] = test: Antimicrobial activity against Penicillium wild strain assessed as diameter of growth inhibition zone at 250 ug/ml after 48-96 hr by agar cup diffusion method; conditions: read-out: DIZ
Trichophyton rubrum [27] = test: Antimicrobial activity against Trichophyton rubrum MTCC 296 assessed as diameter of growth inhibition zone at 50 ug/ml after 48-96 hr by agar cup diffusion method; conditions: read-out: DIZ
Trichophyton rubrum [28] = test: Antimicrobial activity against Trichophyton rubrum MTCC 296 by agar cup diffusion method
Aspergillus clavatus [29] = test: Antimicrobial activity against Aspergillus clavatus MTCC 1323 assessed as diameter of growth inhibition zone at 25 ug/ml after 48-96 hr by agar cup diffusion method; conditions: read-out: DIZ
Klebsiella pneumoniae [30] = test: Antimicrobial activity against Klebsiella pneumoniae MTCC 109 assessed as diameter of growth inhibition zone at 50 ug/ml after 18-24 hr by agar cup diffusion method; conditions: read-out: DIZ
Pseudomonas aeruginosa [31] = test: Antimicrobial activity against Pseudomonas aeruginosa MTCC 1688 assessed as diameter of growth inhibition zone at 50 ug/ml after 18-24 hr by agar cup diffusion method; conditions: read-out: DIZ
Pseudomonas aeruginosa [32] = test: Antimicrobial activity against Pseudomonas aeruginosa MTCC 1688 assessed as diameter of growth inhibition zone at 25 ug/ml after 18-24 hr by agar cup diffusion method; conditions: read-out: DIZ
Aspergillus clavatus [33] = test: Antimicrobial activity against Aspergillus clavatus MTCC 1323 by agar cup diffusion method
Staphylococcus aureus [34] = test: Antimicrobial activity against Staphylococcus aureus MTCC 96 assessed as diameter of growth inhibition zone at 100 ug/ml after 18-24 hr by agar cup diffusion method; conditions: read-out: DIZ
Trichophyton rubrum [35] = test: Antimicrobial activity against Trichophyton rubrum MTCC 296 assessed as diameter of growth inhibition zone at 25 ug/ml after 48-96 hr by agar cup diffusion method; conditions: read-out: DIZ
Aspergillus clavatus [36] = test: Antimicrobial activity against Aspergillus clavatus MTCC 1323 assessed as diameter of growth inhibition zone at 250 ug/ml after 48-96 hr by agar cup diffusion method; conditions: read-out: DIZ
Pseudomonas aeruginosa [37] = test: Antimicrobial activity against Pseudomonas aeruginosa MTCC 1688 by agar cup diffusion method
Trichophyton rubrum [38] = test: Antimicrobial activity against Trichophyton rubrum MTCC 296 assessed as diameter of growth inhibition zone at 100 ug/ml after 48-96 hr by agar cup diffusion method; conditions: read-out: DIZ
Candida albicans [39] = test: Antimicrobial activity against Candida albicans MTCC 227 assessed as diameter of growth inhibition zone at 250 ug/ml after 48-96 hr by agar cup diffusion method; conditions: read-out: DIZ
Penicillium [40] = test: Antimicrobial activity against Penicillium wild strain assessed as diameter of growth inhibition zone at 50 ug/ml after 48-96 hr by agar cup diffusion method; conditions: read-out: DIZ
Escherichia coli [41] = test: Antimicrobial activity against Escherichia coli MTCC 443 assessed as diameter of growth inhibition zone at 100 ug/ml after 18-24 hr by agar cup diffusion method; conditions: read-out: DIZ
Escherichia coli [42] = test: Antimicrobial activity against Escherichia coli MTCC 443 assessed as diameter of growth inhibition zone at 25 ug/ml after 18-24 hr by agar cup diffusion method; conditions: read-out: DIZ
Penicillium [43] = test: Antimicrobial activity against Penicillium wild strain assessed as diameter of growth inhibition zone at 100 ug/ml after 48-96 hr by agar cup diffusion method; conditions: read-out: DIZ
Streptococcus pyogenes [44] = test: Antimicrobial activity against Streptococcus pyogenes MTCC 442 assessed as diameter of growth inhibition zone at 100 ug/ml after 18-24 hr by agar cup diffusion method; conditions: read-out: DIZ
Penicillium [45] = test: Antimicrobial activity against Penicillium wild strain assessed as diameter of growth inhibition zone at 25 ug/ml after 48-96 hr by agar cup diffusion method; conditions: read-out: DIZ

O=C(/C=C/c1ccccc1Cl)C1C(=O)NC(=S)NC1=O showed a zone of inhibition at 25 µg/mL (Staphylococcus aureus [1]) of 10 mm, an MFC (Penicillium [2]) of over 1000 µg/mL and an MIC (Penicillium [2]) of over 1000 µg/mL. It also gave a zone of inhibition at 50 µg/mL (Aspergillus clavatus [3]) of 19 mm, a zone of inhibition at 250 µg/mL (Klebsiella pneumoniae [4]) of 18 mm and a zone of inhibition at 100 µg/mL (Candida albicans [5]) of 22 mm. The zone of inhibition at 25 µg/mL (Streptococcus pyogenes [6]) was 13 mm, the zone of inhibition at 25 µg/mL (Klebsiella pneumoniae [7]) was 12 mm and the zone of inhibition at 100 µg/mL (Pseudomonas aeruginosa [8]) was 17 mm. It also gave an MFC (Candida albicans [9]) of over 1000 µg/mL, an MIC (Candida albicans [9]) of 250 µg/mL (≈ 810 µM) and a zone of inhibition at 50 µg/mL (Staphylococcus aureus [10]) of 14 mm. The zone of inhibition at 50 µg/mL (Escherichia coli [11]) was 14 mm, the zone of inhibition at 100 µg/mL (Klebsiella pneumoniae [12]) was 15 mm and the MBC (Klebsiella pneumoniae [13]) was 250 µg/mL (≈ 810 µM). For the same compound, the MIC (Klebsiella pneumoniae [13]) was 200 µg/mL (≈ 648 µM), the zone of inhibition at 25 µg/mL (Candida albicans [14]) was 21 mm and the zone of inhibition at 250 µg/mL (Trichophyton rubrum [15]) was 21 mm. The zone of inhibition at 100 µg/mL (Aspergillus clavatus [16]) was 21 mm, the zone of inhibition at 250 µg/mL (Pseudomonas aeruginosa [17]) was 18 mm and the zone of inhibition at 250 µg/mL (Staphylococcus aureus [18]) was 18 mm. It also gave a zone of inhibition at 50 µg/mL (Candida albicans [19]) of 22 mm, a zone of inhibition at 250 µg/mL (Escherichia coli [20]) of 16 mm and a zone of inhibition at 50 µg/mL (Streptococcus pyogenes [21]) of 14 mm. It also gave an MBC (Streptococcus pyogenes [22]) of 250 µg/mL (≈ 810 µM), an MIC (Streptococcus pyogenes [22]) of 250 µg/mL (≈ 810 µM) and a zone of inhibition at 250 µg/mL (Streptococcus pyogenes [23]) of 16 mm. The MBC (Escherichia coli [24]) was 500 µg/mL (≈ 1620 µM), the MIC (Escherichia coli [24]) was 250 µg/mL (≈ 810 µM) and the MBC (Staphylococcus aureus [25]) was 500 µg/mL (≈ 1620 µM). The MIC (Staphylococcus aureus [25]) was 250 µg/mL (≈ 810 µM), the zone of inhibition at 250 µg/mL (Penicillium [26]) was 22 mm and the zone of inhibition at 50 µg/mL (Trichophyton rubrum [27]) was 20 mm. For the same compound, the MFC (Trichophyton rubrum [28]) was 500 µg/mL (≈ 1620 µM), the MIC (Trichophyton rubrum [28]) was 500 µg/mL (≈ 1620 µM) and the zone of inhibition at 25 µg/mL (Aspergillus clavatus [29]) was 18 mm. The zone of inhibition at 50 µg/mL (Klebsiella pneumoniae [30]) was 13 mm, the zone of inhibition at 50 µg/mL (Pseudomonas aeruginosa [31]) was 14 mm and the zone of inhibition at 25 µg/mL (Pseudomonas aeruginosa [32]) was 10 mm. The MFC (Aspergillus clavatus [33]) was over 1000 µg/mL, the MIC (Aspergillus clavatus [33]) was over 1000 µg/mL and the zone of inhibition at 100 µg/mL (Staphylococcus aureus [34]) was 17 mm. It also gave a zone of inhibition at 25 µg/mL (Trichophyton rubrum [35]) of 19 mm, a zone of inhibition at 250 µg/mL (Aspergillus clavatus [36]) of 22 mm and an MBC (Pseudomonas aeruginosa [37]) of 500 µg/mL (≈ 1620 µM). It also gave an MIC (Pseudomonas aeruginosa [37]) of 250 µg/mL (≈ 810 µM), a zone of inhibition at 100 µg/mL (Trichophyton rubrum [38]) of 19 mm and a zone of inhibition at 250 µg/mL (Candida albicans [39]) of 23 mm. For the same compound, the zone of inhibition at 50 µg/mL (Penicillium [40]) was 18 mm, the zone of inhibition at 100 µg/mL (Escherichia coli [41]) was 15 mm and the zone of inhibition at 25 µg/mL (Escherichia coli [42]) was 13 mm. It also gave a zone of inhibition at 100 µg/mL (Penicillium [43]) of 21 mm, a zone of inhibition at 100 µg/mL (Streptococcus pyogenes [44]) of 15 mm and a zone of inhibition at 25 µg/mL (Penicillium [45]) of 18 mm.

From ChEMBL document CHEMBL3044736, “Synthesis, characterization, solvatochromic properties, and antimicrobial evaluation of 5-acetyl-2-thioxo-dihydro-pyrimidine-4,6-dione-based chalcones” (2013)
